Tests used:
[1] = test system: kinases that interact with FXR; test: Kinase inhibition profile, kinases that interact with FXR; format: biochemical
[2] = Metabolism assay (liver microsomes); format: in vitro ADME, Sprague−Dawley rats; conditions: rat liver microsomes, 10 μM
Protocol: In vitro biological evaluation […]
MgCl2). After 5 min, the reaction was started by the addition of 13 μL of microsome mix from the liver of Sprague−Dawley rats (Invitrogen; 20 mg protein/mL in 0.1 M phosphate buffer) in a shaking water bath at 37 °C.
The reaction was stopped by addition of 250 μL of ice-cold methanol at 0, 15, 30 and 60 min. The samples were diluted with 250 μL of DMSO and centrifuged at 10000 g for 5 min at 4 °C. The supernatants were analyzed and test compound was quantified by HPLC: mobile phase: MeOH 83%/H2O 17%/formic acid 0.1%; flow-rate:
1 mL/min; stationary phase: MultoHigh Phenyl phase, 5 μm, 250 × 4, precolumn, phenyl, 5 μm, 20 × 4; detection wavelength: 330 and 254 nm; injection volume: 50 μL. Control samples were performed to check the stability of 4 or 16 in the reaction mixture: first control was without NADPH, which is needed for the enzymatic activity of the microsomes, second control was with inactivated microsomes (incubated for 20 min at 90 °C), third control was […]
quantified by an external calibration curve, where data are expressed as means ± SEM of single determinations […]
obtained in three independent experiments. […]
as mean percent of remaining compound ± SEM; n=3): 4: 0 min: 100 ± 0%, 15 min: 86 ± 3%, 30 min: 74 ± 1%,

BSEP mRNA = test: FXR target gene quantification (qRT-PCR) in HepG2 cells: BSEP; format: cell-based; conditions: for BSEP mRNA, mean fold activation compared to DMSO (0.1%): HepG2, 24 h
SHP mRNA = test: FXR target gene quantification (qRT-PCR) in HepG2 cells: SHP; format: cell-based; conditions: for SHP mRNA, mean fold activation compared to DMSO (0.1%): HepG2, 24 h
TGR5 = test system: T1, TGR5; test: TGR5 assay (Eurofins); format: cell-based; conditions: 1 and 10 µM
T1 construct: Eurofins (Brussels, Belgium)

FXR-LBD = test: Thermal shift assay (SYPRO Orange); format: binding; conditions: compound 100 µM alone, 5 µM FXR-LBD; mean ± SEM, n ≥ 4
Protocol: Thermal shift experiments were performed in clear 96-well plates (Invitrogen) using SYPRO Orange (Invitrogen) as dye as described previously[38]. 10 μL of test compound (final concentrations: 3: 100 µM; 16: 100 µM) in assay buffer (10 mM TRIS (pH 8.3), 5 mM DTT, 0.5 mM EDTA, 100 mM NaCl) were mixed with 10 μL of FXR-LBD (final protein concentration 5 µM) in assay buffer and 5 µL of SYPRO Orange (5 × final concentration). Temperature-dependent fluorescence increase reporting protein denaturation was measured in duplicates in an ICycler (Bio-Rad Laboratories, Hercules, CA, USA) from 20 to 90 °C in steps of 0.5 °C per minute at 300 nm excitation and 570 nm emission wavelength. The first derivative of the melting curve was calculated using the Graph Pad Prism 5 software. All curves were determined at least four times in independent experiments.

Abl = test: Kinase inhibition assay (radiometric or HTRF); format: biochemical

## CS(=O)(=O)O.CS(=O)(=O)O.CS(=O)(=O)O.CS(=O)(=O)O.Cc1ccc(NC(=O)c2ccc(Cl)cc2)cc1Nc1nccc(-c2cccnc2)n1.Cc1ccc(NC(=O)c2ccc(Cl)cc2)cc1Nc1nccc(-c2cccnc2)n1.O.O.O [compound 16, 4-Chloro-N-(4-methyl-3-(4-(pyridin-3-yl)pyrimidin-2-ylamino)phenyl)benzamide dimesylate-sesquihydrate]
[1]
  Inhibition of kinases that interact with FXR: does not markedly inhibit
[2]; 0 min
  mean percent of remaining compound: 100 ± 0%
[2]; 15 min
  mean percent of remaining compound: 92 ± 1%
[2]; 30 min
  mean percent of remaining compound: 88 ± 1%
[2]; 60 min
  mean percent of remaining compound: 86 ± 1%
BSEP mRNA; HepG2, 16 co-incubated with 1
  CDCA-induced BSEP mRNA expression compared to 1 alone: about 3 fold
BSEP mRNA; 0.3 µM alone
  BSEP mRNA, mean fold activation compared to DMSO (0.1%): 2.64 ± 0.07
BSEP mRNA; 16 (0.3 µM) + 1 (20 µM)
  BSEP mRNA, mean fold activation compared to DMSO (0.1%): 4.56 ± 0.77
BSEP mRNA; 16 (0.3 µM) + 1 (50 µM)
  BSEP mRNA, mean fold activation compared to DMSO (0.1%): 29.37 ± 3.32
SHP mRNA; HepG2, 16 co-incubated with 1
  CDCA-induced SHP mRNA expression compared to 1 alone: about 3 fold
SHP mRNA; 0.3 µM alone
  SHP mRNA, mean fold activation compared to DMSO (0.1%): 2.32 ± 0.18
SHP mRNA; 16 (0.3 µM) + 1 (20 µM)
  SHP mRNA, mean fold activation compared to DMSO (0.1%): 1.64 ± 0.23
SHP mRNA; 16 (0.3 µM) + 1 (50 µM)
  SHP mRNA, mean fold activation compared to DMSO (0.1%): 12.70 ± 1.04
TGR5
  TGR5 modulation (agonistic or antagonistic activity): does not modulate
FXR-LBD
  Thermal shift of FXR-LBD melting point: −1.0 ± 0.0 °C
Abl
  Inhibition of Abl: potent inhibitor

Reference: article PMC5931576, “Allosteric modulation of the farnesoid X receptor by a small molecule” (Scientific Reports, 2018)
